Results published in ChEMBL document CHEMBL5212743, “Selectivity Literature for EUbOPEN Chemogenomics Library wave 3” (2023).
Where a chain is given by its changes, count along the chain named. pIC50: −log10 of the molar value.

How the values were obtained:
[1] = molecular target: Serine/threonine-protein kinase PLK2 (Homo sapiens) (UniProt Q9NYY3); experiment: Selectivity interaction (KinomeScan (DiscoverX)) EUB0000702a PLK2; settings: at 1 µM
[2] = molecular target: Cyclin-dependent kinase 7 (Homo sapiens) (UniProt P50613); experiment: Selectivity interaction (KinomeScan (DiscoverX)) EUB0000702a CDK7; settings: at 1 µM
Chain of Cyclin-dependent kinase 7 (Homo sapiens) (P50613 whole entry): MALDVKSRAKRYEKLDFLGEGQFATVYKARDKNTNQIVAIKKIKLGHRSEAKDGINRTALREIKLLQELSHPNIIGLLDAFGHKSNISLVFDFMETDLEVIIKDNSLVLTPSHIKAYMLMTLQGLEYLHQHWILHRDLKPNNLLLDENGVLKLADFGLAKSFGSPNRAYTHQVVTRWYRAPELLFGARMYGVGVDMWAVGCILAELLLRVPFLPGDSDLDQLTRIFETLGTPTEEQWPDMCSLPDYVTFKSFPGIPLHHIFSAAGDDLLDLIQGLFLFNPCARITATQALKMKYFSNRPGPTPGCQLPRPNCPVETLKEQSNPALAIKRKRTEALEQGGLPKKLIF

[3] = tested on: T1, Receptor-type tyrosine-protein kinase FLT3 (Homo sapiens), P36888 [D835Y]; experiment: (§1) Selectivity interaction (KinomeScan (DiscoverX)) EUB0000702a FLT3; settings: at 1 µM
T1 sequence (whole entry): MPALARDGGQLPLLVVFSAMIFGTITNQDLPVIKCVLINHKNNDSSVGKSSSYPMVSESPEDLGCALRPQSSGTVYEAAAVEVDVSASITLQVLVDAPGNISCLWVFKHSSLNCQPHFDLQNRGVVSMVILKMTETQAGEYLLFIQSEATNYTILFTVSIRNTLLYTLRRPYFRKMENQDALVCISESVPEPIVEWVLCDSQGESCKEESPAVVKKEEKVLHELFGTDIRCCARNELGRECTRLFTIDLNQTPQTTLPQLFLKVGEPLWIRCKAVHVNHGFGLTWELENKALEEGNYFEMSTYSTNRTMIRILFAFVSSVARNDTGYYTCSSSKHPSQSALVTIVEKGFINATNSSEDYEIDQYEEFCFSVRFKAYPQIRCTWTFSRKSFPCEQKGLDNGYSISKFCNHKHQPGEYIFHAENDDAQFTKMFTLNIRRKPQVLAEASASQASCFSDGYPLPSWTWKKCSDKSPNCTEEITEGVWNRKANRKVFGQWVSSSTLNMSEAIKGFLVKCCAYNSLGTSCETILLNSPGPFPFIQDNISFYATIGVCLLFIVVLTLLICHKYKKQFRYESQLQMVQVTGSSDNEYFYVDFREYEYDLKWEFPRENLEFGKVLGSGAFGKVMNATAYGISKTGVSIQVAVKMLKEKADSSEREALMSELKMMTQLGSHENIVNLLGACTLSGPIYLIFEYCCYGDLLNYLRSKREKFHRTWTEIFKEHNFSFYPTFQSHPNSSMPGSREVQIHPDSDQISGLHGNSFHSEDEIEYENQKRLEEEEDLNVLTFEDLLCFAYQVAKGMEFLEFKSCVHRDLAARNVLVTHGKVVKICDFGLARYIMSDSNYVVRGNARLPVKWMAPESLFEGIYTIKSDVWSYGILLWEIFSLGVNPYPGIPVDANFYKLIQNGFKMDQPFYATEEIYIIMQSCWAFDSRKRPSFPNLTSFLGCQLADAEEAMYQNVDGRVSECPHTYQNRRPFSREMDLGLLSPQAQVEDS

[4] = tested on: T2, Receptor-type tyrosine-protein kinase FLT3 (Homo sapiens), P36888 [D835V]; experiment: as §1; settings: at 1 µM
T2 sequence (whole entry): T1 sequence (whole entry) with Y835V

[5] = molecular target: Serine/threonine-protein kinase 17A (Homo sapiens) (UniProt Q9UEE5); experiment: Selectivity interaction (KinomeScan (DiscoverX)) EUB0000305b STK17A; settings: at 100 nM
Chain of Serine/threonine-protein kinase 17A (Homo sapiens) (Q9UEE5 whole entry): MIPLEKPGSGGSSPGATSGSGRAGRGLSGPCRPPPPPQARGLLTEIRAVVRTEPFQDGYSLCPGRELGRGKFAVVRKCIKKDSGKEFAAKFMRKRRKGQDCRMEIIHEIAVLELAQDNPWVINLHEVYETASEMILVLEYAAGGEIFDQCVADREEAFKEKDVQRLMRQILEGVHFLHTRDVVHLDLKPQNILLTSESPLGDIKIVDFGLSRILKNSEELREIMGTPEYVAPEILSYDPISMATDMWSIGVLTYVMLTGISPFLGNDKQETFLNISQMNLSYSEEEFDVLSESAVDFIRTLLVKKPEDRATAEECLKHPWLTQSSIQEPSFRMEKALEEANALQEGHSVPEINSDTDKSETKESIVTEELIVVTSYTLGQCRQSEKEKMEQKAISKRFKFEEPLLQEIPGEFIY

[6] = molecular target: Receptor-type tyrosine-protein kinase FLT3 (Homo sapiens, UniProt P36888); experiment: Selectivity interaction (NanoBRET assay (HEK293T cells)) EUB0000305b FLT3
[7] = molecular target: Serine/threonine-protein kinase 17A (Homo sapiens, UniProt Q9UEE5); experiment: Selectivity interaction (NanoBRET assay (HEK293T cells)) EUB0000305b STK17A
Chain of Serine/threonine-protein kinase 17A (Q9UEE5 whole entry): as above

Chain of Serine/threonine-protein kinase PLK2 (Homo sapiens) (Q9NYY3 whole entry, looked up): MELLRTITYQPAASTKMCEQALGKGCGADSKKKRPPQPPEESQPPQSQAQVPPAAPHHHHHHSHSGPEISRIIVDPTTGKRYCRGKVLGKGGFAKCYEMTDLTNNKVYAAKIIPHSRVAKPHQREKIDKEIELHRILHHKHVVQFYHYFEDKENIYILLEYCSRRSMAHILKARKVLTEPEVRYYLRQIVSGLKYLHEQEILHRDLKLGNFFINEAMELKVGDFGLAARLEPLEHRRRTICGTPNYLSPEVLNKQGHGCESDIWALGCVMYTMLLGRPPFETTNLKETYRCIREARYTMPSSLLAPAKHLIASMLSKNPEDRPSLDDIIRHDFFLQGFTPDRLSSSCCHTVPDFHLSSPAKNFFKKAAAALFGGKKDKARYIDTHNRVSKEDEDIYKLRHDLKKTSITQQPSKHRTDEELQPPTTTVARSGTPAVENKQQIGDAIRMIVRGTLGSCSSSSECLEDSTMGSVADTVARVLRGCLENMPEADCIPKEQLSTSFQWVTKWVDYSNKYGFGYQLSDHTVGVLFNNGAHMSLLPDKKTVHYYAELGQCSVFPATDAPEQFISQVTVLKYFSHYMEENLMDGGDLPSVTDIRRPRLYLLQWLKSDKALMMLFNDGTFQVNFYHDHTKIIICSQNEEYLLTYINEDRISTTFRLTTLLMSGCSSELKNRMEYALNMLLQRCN

Row | SMILES | % of control [1] [%] | % of control [2] [%] | % of control [3] [%] | % of control [4] [%] | % of control [5] [%] | pIC50 [6] | pIC50 [7]
1 | CN(c1ccnc(CNc2nc(Nc3ccc4c(c3)CC(=O)N4)ncc2C(F)(F)F)n1)S(C)(=O)=O [PF-00911705] | 0.5 | 3.5 | 2 | 1.5 |  |  | 
2 | C[C@H](c1ccnc(Nc2nc3ccc(-c4cc(N(C)C)ncn4)cc3[nH]2)c1)N1CCN(C(=O)CC(F)(F)F)CC1 [BAY-985] |  |  |  |  | 40 | < 4.70 | < 4.70
